What is called pIC50 is −log10 of the IC50, conventionally taken in molar units.

Molecules are shown by their SMILES. pIC50: −log10 of the molar value. Counter-ions that a name gives are not always drawn.

For the experiment, the target named is T1, human FPTase (Homo sapiens, UniProt P49354+P49356).
T1 construct: made in house
Description: In vitro inhibition of human farnesyl-protein transferase (FPTase). The format is biochemical. Particulars: 100 nM Ras-CVIM substrate, [3H]-FPP, 30 min; read-out: IC50, inhibitory activity against human FPTase.

As to `CC[C@H](C)[C@@H](CN1Cc2ccccc2C[C@H]1C(=O)N[C@@H](CCSC)C(=O)O)NC(=O)[C@@H]1CCC(=O)N1` [Example 3, Step B, N-[L-Pyroglutamyl-2(S)-amino-3(S)-methylpentyl]-1,2,3,4-tetrahydro-3(S)-isoquinolinecarbonyl-methionine trifluoroacetate], the pIC50 was over 5.00.
The same measure for `CC[C@H](C)[C@@H](CN1Cc2ccccc2C[C@H]1C(=O)N[C@@H](CCSC)C(=O)O)NC(=O)Cc1c[nH]cn1` [Examples 1. Step G, N-[(1H-imidazol-4-ylacetyl)-2(S)-amino-3(S)-methylpentyl]-1,2,3,4-tetrahydro-3(S)-isoquinolinecarbonyl-methionine trifluoroacetate]: over 5.00.
